These results are taken from patent US20230148588A1, “METHODS, COMPOSITIONS, AND SYSTEMS FOR ENHANCING EX-VIVO ORGAN PERFUSION” (University Health Network, priority 2020, published 2023).

The test system of one data set is IL-8. Briefly: IL-8 production in simulated EVLP cell culture model. The format is cell-based, human. As to conditions: prolonged CIT (18 h) and simulated EVLP (12 h). Here is the method: A cell culture model was developed that simulates hypothermic lung preservation and reperfusion and was used to “perfuse” cells with EVLP perfusate, as shown in FIG. 6A. Culture medium of confluent cells was replaced with 4° C. lung preservation solution (Perfadex®) for 6 h or 18 h, and then “perfused” with Steen solution with and without GlutaMax.

A further data set deals with pig lung. In words: Pig lung EVLP with GlutaMax-modified Steen solution. The settings on record: for lung function: compared with historical controls. From the text:
Methods: Human pulmonary microvascular endothelial cells (HPMEC) and human lung epithelial cells (BEAS-2B) were used to determine the effects of Steen solution components on basic cellular function. Cell confluence, apoptosis and migration were visualized and quantified by IncuCyte® Live Cell Analysis System in real-time. A simulated EVLP cell culture model was established by replacing regular culture medium with cold lung preservation solution and followed by “perfusion” with normothermic Steen solution or its modifications. Cell apoptosis was quantified. Porcine lung EVLP was performed using Steen solution with added nutrients. […] During the experiment, EVLP was extended as long as the dynamic lung compliance was greater than 15 ml/cmH2O. […] Pig lungs were preserved at 4° C. followed by EVLP. […] Lung function assessment: Perfusate was sampled regularly. PO2, PCO2, pH, Na^+, K^+, Ca^2+, Cl^−, glucose and lactate were determined via a blood gas analyzer (see FIG. 17; Table 3). Pulmonary function was monitored continuously and assessed every hour, including static and dynamic compliances, peak airway inspiratory pressure, pulmonary artery pressure and pulmonary vascular resistance (PVR). Lung tissue biopsies were collected before, during and at the end of EVLP. Lung wet-to-dry ratio was measured as an indicator of lung edema.

Data set [1] is described as follows: pH of Steen solution after addition of nutrients. The format is physicochemical. The settings on record: nutrient added to Steen solution (GlutaMax at 4 mM; amino acids at clinically recommended concentrations). As for the experimental part:
Amino acids are essential nutrients for cell proliferation. In rat lungs, the lack of amino acids and insulin in perfusate reduced protein synthesis, while vitamin C prolonged the viability and stability of perfused rat lungs by slowing the decline of mitochondrial activity. Therefore, clinically recommended concentrations of amino acids and/or vitamins were added in Steen solution to improve its performance.

For another data set, the system named is HPMEC. Briefly: Simulated EVLP cell culture model (cold Perfadex preservation, then perfusion with Steen solution with and without GlutaMax). In kind it is cell-based, human. The settings on record: for total GSH production: fluorometric assay kit; for apoptosis: GlutaMax 0.5 mM to 4 mM in Steen solution, after 6 h or 18 h cold preservation, simulated EVLP. From the text:
(§1) Methods: Human pulmonary microvascular endothelial cells (HPMEC) and human lung epithelial cells (BEAS-2B) were used to determine the effects of Steen solution components on basic cellular function. Cell confluence, apoptosis and migration were visualized and quantified by IncuCyte® Live Cell Analysis System in real-time. A simulated EVLP cell culture model was established by replacing regular culture medium with cold lung preservation solution and followed by “perfusion” with normothermic Steen solution or its modifications. Cell apoptosis was quantified. Porcine lung EVLP was performed using Steen solution with added nutrients. A cell culture model was developed that simulates hypothermic lung preservation and reperfusion and was used to “perfuse” cells with EVLP perfusate, as shown in FIG. 6A. Culture medium of confluent cells was replaced with 4° C. lung preservation solution (Perfadex®) for 6 h or 18 h, and then “perfused” with Steen solution with and without GlutaMax. […] Human lung endothelial and epithelial cells were subjected to simulated EVLP treated with Steen solution with and without GlutaMax. GSH concentration in cell culture was measured with a fluorometric assay kit from BioVision.

A further data set concerns BEAS-2B. Described as above. The settings on record: for total GSH production: fluorometric assay kit; for apoptosis: GlutaMax 0.5 mM to 4 mM in Steen solution, after 6 h or 18 h cold preservation, simulated EVLP. In kind it is cell-based, human.
Source text: as §1

The subject of data set [2] is human lung epithelial cells (BEAS-2B). In words: Basic cellular function of cells exposed to Steen solution and its modifications (IncuCyte Live Cell Analysis). The settings on record: for apoptosis / cell migration: GlutaMax added at 4 mM to Steen solution, vs Steen solution. The format is cell-based. From the text: (§2) Methods: Human pulmonary microvascular endothelial cells (HPMEC) and human lung epithelial cells (BEAS-2B) were used to determine the effects of Steen solution components on basic cellular function. Cell confluence, apoptosis and migration were visualized and quantified by IncuCyte® Live Cell Analysis System in real-time. A simulated EVLP cell culture model was established by replacing regular culture medium with cold lung preservation solution and followed by “perfusion” with normothermic Steen solution or its modifications. Cell apoptosis was quantified. Porcine lung EVLP was performed using Steen solution with added nutrients.
(§3) The effects of glutamine in Steen solution on mitochondrial respiration and glycolytic function were examined using a Seahorse XFe analyzer.

Data set [3] deals with human pulmonary microvascular endothelial cells (HPMEC). The data set is described as above. In kind it is cell-based. As to conditions: for apoptosis / cell migration: GlutaMax added at 4 mM to Steen solution, vs Steen solution.
Source text: as §2, §3

Where [4] appears, read: pig lung EVLP, first 18 h, compared with historical control.
The mark [5] stands for this setting: CIT 6 h and EVLP 4 h, listed as GlutaMAX.
Where [6] appears, read: different concentrations of Albumin (1, 2, 4, 7%) and Dextran 40 (5, 25, 50 g/L) in Steen solution.

Entries after “also recorded” stand apart in the source; their conditions may differ. Where a SMILES comes first, the peptide text is derived from it.

Consider `C[C@H](N)C(=O)N[C@@H](CCC(N)=O)C(=O)O` [GlutaMax, L-alanyl-L-glutamine] (H-Ala-Gln-OH), for which, in the data set on IL-8, the IL-8 production result is reported as “inhibited IL-8 production”. The lung function result in the data set on pig lung (pig lung EVLP) is given as “improved lung function”; in the data set with pig lung (pig lung EVLP, listed as gln), “stable lung function”. Moreover, the “delta PO2” value with pig lung (setting [4]) is reported as “higher”. For the same compound, the dynamic compliance result in the data set with pig lung (setting [4]) is “higher”. The peak airway pressure entry in the data set on pig lung (setting [4]) was “lower”. The EVLP period result in the data set with pig lung (pig lung EVLP, gln added to Steen solution) is recorded as “significantly extend”. In the data set on pig lung (pig lung, EVLP extended as long as dynamic lung compliance greater than 15 ml/cmH2O), this compound returned an EVLP duration reached of 36 h. Further, the pH result in data set [1] is reported as “maintained in the physiological range”. For the same compound, the “HSP70 production (protein expression in cell lysates)” value is given as “promoted HSP70 production; also recorded: enhanced HSP70 production” in the data set with HPMEC (CIT 6 h and EVLP 4 h); “promoted HSP70 production; also recorded: enhanced HSP70 production” with BEAS-2B (CIT 6 h and EVLP 4 h). The “total GSH production” value in the data set with HPMEC (CIT 6 h and EVLP 4 h) is given as “enhanced total GSH production”; in the data set with HPMEC (setting [5]), “enhanced Total GSH production”; with BEAS-2B (CIT 6 h and EVLP 4 h), “enhanced total GSH production”; with BEAS-2B (setting [5]), “enhanced Total GSH production”. Further, the apoptosis entry in the data set with HPMEC is given as “reduced apoptosis”; with HPMEC (listed as Glutamax), “reduced apoptosis”; in the data set with HPMEC (listed as gln) it was “significantly reduced apoptosis”; in the data set on BEAS-2B, “reduced apoptosis”; in the data set on BEAS-2B (listed as Glutamax), “reduced apoptosis”; in the data set on BEAS-2B (listed as gln), “significantly reduced apoptosis”. Besides, the apoptosis result is recorded as “reduced apoptosis” in data set [2], “significantly inhibited cell apoptosis” in data set [2] (listed as L-alanyl-L-glutamine), “reduced apoptosis” in data set [3] and “significantly inhibited cell apoptosis” in data set [3] (listed as L-alanyl-L-glutamine). The cell migration result in data set [2], in data set [2] (listed as L-alanyl-L-glutamine), in data set [3] and in data set [3] (listed as L-alanyl-L-glutamine) was “improved cell migration” in each case.

In the case of Dextran 40, the “cell confluence, apoptosis and migration” value in data set [2] (setting [6]) and in data set [3] (setting [6]) was “no major differences” throughout.
